Entries after “also recorded” stand apart in the source; their conditions may differ. Ends that are not written are not given here.
Test system: cathepsin K, TRAP and NFATc1 mRNA in CD14+ cells
Test: Real-time RT-PCR of osteoclast marker genes in CD14+ cells
Type: cell-based, human
Settings: CD14+ cells with M-CSF and RANKL; day 3 to day 11 after RANKL stimulation

For NVLKLCSGE [Pep8, NVLKLCSGE], the “mRNA expression of cathepsin K, TRAP and NFATc1” value was “inhibited the mRNA expression; also recorded: markedly reduced”.
